Measured values: article PMC9363195, “Preclinical Pharmacokinetics, Biodistribution, and Acute Toxicity Evaluation of Caerin 1.9 Peptide in Sprague Dawley Rats” (Evidence-based Complementary and Alternative Medicine : eCAM, 2022)
“Also recorded” adds a separate entry of the source. Peptide text beside a SMILES is read from it.

What was measured:
SD rats [1] = experiment: Functional observation (mortality, clinical signs) in acute toxicity study; type: in vivo, Sprague Dawley rats; details: for mortality: single s.c. 1.0, 10.0, 100 mg/kg or 10.0 mg/kg daily x14 d, cage observation
Description: The mortality, general health status, and toxic reaction symptoms of the experimental groups were documented. Before the first day of F3 administration and during the experiments, a detailed clinical observation was carried out and recorded the changes in skin, eyes and mucous membrane, respiratory system, nervous system, activity, and behaviors of the rats. The body weight was measured and recorded before the first day of administration.
Forty SD rats (20 males and 20 females) were randomly divided into 4 groups (Figure 1). All rats were given F3 once on the day of the experiment.
Twelve SD rats (6 males, 6 females) were given a daily subcutaneous injection of F3 at a dose of 10.0 mg/kg for consecutive 14 days. The first day of administration was recorded as day 1.

SD rats [2] = experiment: Histopathologic examination (H&E) of vital organs; type: in vivo, Sprague Dawley rats; details: s.c. 10.0 mg/kg daily x14 d
Text: After blood was collected at the predetermined time points, all rats were euthanized and subjected to a comprehensive general autopsy, which included a thorough examination of the external surface of the body, all foramen, cranial cavity, external surface of the brain, chest, abdomen, pelvic cavity, viscera, cervix, and genitalia. The adrenal gland, brain (brain, cerebellum, and brain stem), epididymis, heart, kidney, liver, ovary, spleen, testis, thymus, thyroid gland, and uterus were carefully collected, weighed, and documented before being kept in 10% neutral formalin buffer (10% NBF).
The H&E staining was followed as reported elsewhere. Following formalin fixation, the important tissues were dehydrated, stained with hematoxylin (about 15 minutes) and eosin (1–3 minutes), dehydrated again with gradient alcohol, clarified in xylene, and then examined and recorded under the microscope.

## CC[C@H](C)[C@H](NC(=O)[C@H](CO)NC(=O)CNC(=O)[C@H](CC(C)C)NC(=O)[C@@H](NC(=O)CNC(=O)[C@H](Cc1ccccc1)NC(=O)[C@H](CC(C)C)NC(=O)CN)C(C)C)C(=O)N[C@@H](C)C(=O)N[C@@H](CCCCN)C(=O)N[C@@H](Cc1c[nH]cn1)C(=O)N[C@H](C(=O)N[C@@H](CC(C)C)C(=O)N1CCC[C@H]1C(=O)N[C@@H](Cc1c[nH]cn1)C(=O)N[C@H](C(=O)N[C@H](C(=O)N1CCC[C@H]1C(=O)N[C@H](C(=O)N[C@H](C(=O)N[C@@H](C)C(=O)N[C@@H](CCC(=O)O)C(=O)N[C@@H](CCCCN)C(=O)N[C@@H](CC(C)C)C(N)=O)[C@@H](C)CC)C(C)C)C(C)C)C(C)C)C(C)C [F3, Caerin 1.9] (H-GLFGVLGSIAKHVLPHVVPVIAEKL-NH2)
SD rats [1]; s.c. 10.0 mg/kg daily x14 d, 6 M/6 F
  clinical observation: scabs at the injection site: scabs were discovered at the injection site in one female rat, three female rats, and two male rats on the 8th, 12th, and 15th days, respectively
SD rats [1]; single s.c. 1.0 mg/kg or 10.0 mg/kg
  clinical observation (fur, eyes, mucosa, respiratory, circulatory, nervous system, behaviors): no abnormalities
SD rats [1]; single s.c. 100.0 mg/kg, 5 M/5 F
  clinical observation: dorsal scabs: one male and two female rats on day 8 and two female rats on day 15 developed dorsal scabs
SD rats [1]
  mortality: no rats receiving F3 were found dead or dying; also recorded: No dead or dying rats were observed
SD rats [1]; listed as Caerin 1.9
  mortality: does not cause mortality or organ malfunction
SD rats [2]
  histopathologic examination of essential organs: no apparent abnormalities
